In the oligonucleotide strings, read from the 5' end, every base follows the letter of its sugar. An asterisk marks phosphorothioate; unmarked linkages are phosphodiester. Other units and linkages are bracketed, terminal groups are in braces. A string of capitals states the bases alone. {NAG37} = tridentate N-acetyl-galactosamine targeting ligand, structure (NAG37)s; [invAb] = inverted abasic unit; m = 2'-O-methyl; f = 2'-fluoro
Legend:
[1] = system: ANGPTL3 protein; test: Example 9: serum ANGPTL3 protein by ELISA in cynomolgus monkeys; format: in vivo, cynomolgus macaque (Macaca fascicularis); settings: for Average ANGPTL3 Protein Normalized to Pre-Treatment: 2.0 mg/kg single SC injection day 1, cynos, n=3
Procedure: Additional ANGPTL3 RNAi agents were evaluated in cynomolgus monkeys. On day 1, cynomolgus macaque (Macaca fascicularis) primates (also referred to herein as “cynos”) were administered a single subcutaneous injection of 0.3 mL/kg (approximately 2-3 mL volume, depending on animal mass) containing 2.0 mg/kg of an ANGPTL3 RNAi agent, which included either AD05488, AD05743, AD05775, or AD05841, each formulated in saline. […] ANGPTL3 RNAi agents AD05488, AD05743, and AD05775 included nucleotide sequences designed to target position 304 of the ANGPTL3 gene. ANGPTL3 RNAi agent AD05841 included nucleotide sequences designed to target position 1035 of the ANGPTL3 gene.
Three (3) cynos in each group were tested (n=3). Blood samples were drawn and serum samples were analyzed on days −14 (predose), −7 (predose), 1 (pre-dose), 8, 15, 22, 29, and 35. Cynos were fasted overnight prior to each collection. ANGPTL3 protein levels in serum were measured by ELISA assay (R&D Systems), according to the manufacturer's recommendations. Triglycerides, total cholesterol, high-density lipoprotein (HDL), and low-density lipoprotein (LDL) in serum were measured on a Cobas® Integra 400 (Roche Diagnostics), according to the manufacturer's recommendations.
The ANGPTL3 protein levels, triglyceride levels, total cholesterol levels, HDL levels, and LDL levels for each animal were normalized. For normalization, the level of ANGPTL3 protein, triglyceride, HDL, and total cholesterol, respectively, for each animal at a time point, was divided by the average pre-treatment level of expression in that animal (in this case at days −14, −7, and 1) to determine the ratio of expression “normalized to pre-treatment.”

[2] = system: ANGPTL3 protein; test: Example 10: serum ANGPTL3 protein by ELISA in mice; format: in vivo; settings: 0.5 mg/kg single SC injection day 1, female C57bl/6 mice, n=3, ratio to D5W control
Procedure: (§1) To assess the in vivo activity of further ANGPTL3 RNAi agents that are designed to target position 304 on the ANGPTL3 gene, six- to eight-week-old female C57bl/6 mice were used. Pre-dose serum samples were taken at day −1 after a four hour fast. At day 1, each mouse was given a single subcutaneous administration of 200 μl containing 0.5 mg/kg (mpk) of an ANGPTL3 RNAi agent in D5W (dextrose in 5% water), or control (D5W) with no RNAi agent, according to the dosing groups recited in Table 47.
(§2) Each of the RNAi agents included a modified sequence and an N-acetyl-galactosamine-containing targeting ligand conjugated to the 5′ terminal end of the sense strand. (See Tables 3, 4, and 5 for modified sequences and targeting ligand structures). As noted above, each of the ANGPTL3 RNAi agents dosed in this study included nucleotide sequences designed to target the ANGPTL3 gene at position 304. The injections were performed between the skin and muscle (i.e. subcutaneous injections) into the loose skin over the neck and shoulder area. Three (3) mice in each group were tested (n=3). Serum was collected on days 8, 15, 22, 29, and for some groups on day 36 (i.e., Groups 1, 2, and 9-13 only). Mice were fasted for four hours prior to each collection. ANGPTL3 protein levels in serum were measured by ELISA assay (R&D Systems), according to the manufacturer's recommendations. Triglycerides, total cholesterol, high-density lipoprotein (HDL), and low-density lipoprotein (LDL) in serum were measured on a Cobas® Integra 400 (Roche Diagnostics), according to the manufacturer's recommendations.
(§3) The ANGPTL3 protein levels, triglyceride levels, total cholesterol levels, HDL levels, and LDL levels for each animal were normalized. For normalization, the level of ANGPTL3 protein, triglyceride, HDL, and total cholesterol, respectively, for each animal at a time point, was divided by the pre-treatment level of expression in that animal (in this case at day −1) to determine the ratio of expression “normalized to pre-treatment.” Expression at a specific time point was then normalized to the D5W control group by dividing the “normalized to pre-treatment” ratio for an individual animal by the mean “normalized to pretreatment” ratio of all mice in the D5W control group.

[3] = system: ANGPTL3 gene; test: Example 6: serum triglycerides in mice; format: in vivo, C57bl/6 mice
Procedure: as §1, with “additional” for “further”, “25.” for “47.”
as §2, with “structures).” for “structures). As noted above, each of the ANGPTL3 RNAi agents dosed in this study included nucleotide sequences designed to target the ANGPTL3 gene at position 304.”, “22, 30,” for “22, 29,”, “and” for “and for some groups”, “day 43 for certain groups” for “day 36”, “2, 5,” for “2,”, “and 10” for “and 9-13”
as §3

[4] = system: ANGPTL3 gene; test: Example 4: serum LDL in mice; format: in vivo, C57bl/6 mice
[5] = Day 22, 0.5 mg/kg single SC injection on day 1, n=3
[6] = Day 43, 0.5 mg/kg single SC injection on day 1, n=3

Substance	Average ANGPTL3 Protein Normalized to Pre-Treatment ([1]; Day 8)	Average ANGPTL3 Protein Normalized to Pre-Treatment ([1]; Day 15)	Average ANGPTL3 Protein Normalized to Pre-Treatment ([1]; Day 22)	Average ANGPTL3 Protein Normalized to Pre-Treatment ([1]; Day 29)	Average ANGPTL3 Protein Normalized to Pre-Treatment ([1]; Day 35)	reduction in ANGPTL3 protein compared to pre-treatment ([1]; each of the measured time points, single 2.0 mg/kg subcutaneous, cynomolgus monkeys)	Average ANGPTL3 Protein Normalized to Pre-Treatment and Control ([2]; Day 8)	Average ANGPTL3 Protein Normalized to Pre-Treatment and Control ([2]; Day 15)	Average ANGPTL3 Protein Normalized to Pre-Treatment and Control ([2]; Day 22)	Average ANGPTL3 Protein Normalized to Pre-Treatment and Control ([2]; Day 29)	Average ANGPTL3 Protein Normalized to Pre-Treatment and Control ([2]; Day 36)	Avg TG, normalized to pre-treatment and control ([3]; Day 8, 0.5 mg/kg single SC injection on day 1, n=3)	Avg TG, normalized to pre-treatment and control ([3]; Day 15, 0.5 mg/kg single SC injection on day 1, n=3)	Avg TG, normalized to pre-treatment and control [3, 5]	Avg TG, normalized to pre-treatment and control ([3]; Day 30, 0.5 mg/kg single SC injection on day 1, n=3)	Avg TG, normalized to pre-treatment and control [3, 6]	Avg LDL, normalized to pre-treatment and control [4, 5]	Avg LDL, normalized to pre-treatment and control ([4]; Day 29, 0.5 mg/kg single SC injection on day 1, n=3)	Avg LDL, normalized to pre-treatment and control [4, 6]
AD05488: RNAi agent duplex: antisense AM07235-AS, sense AM07234-SS (antisense mU*fA*mC*fUmGfAmUfCmAfAmAfUmAfUmGfUmUfGmAfG*mC; sense {NAG37}*[invAb]*mGmCmUmCmAmAmCmAfUfAfUmUmUmGmAmUmCmAmGmUmA*[invAb])	0.232	0.240	0.239	0.258	0.332	reduction	0.179	0.197	0.196	0.258	0.297	0.568	0.637	0.484	0.652	0.689	–	–	–
AD05308: RNAi agent duplex: antisense AM07003-AS, sense AM07002-SS (chain 1 mU*fG*mU*fUmGfAmAfUmUfAmAfUmGfUmCfCmAfUmGfG*mA; chain 2 {NAG37}*[invAb]*mUmCmCmAmUmGmGmAfCfAfUmUmAmAmUmUmCmAmAmCmA*[invAb])	–	–	–	–	–	–	–	–	–	–	–	–	–	–	–	–	1.209	1.251	1.375
